Patent publication EP0037318A1, “Composition, particularly useful in the treatment and prevention of dandruff and containing metallic derivatives of thiobenzoic acid” (PIERRE FABRE S.A., priority 1980, dated 1981)
Read-outs that look alike come from different tables or passages of the source.

Key:
[1] = Anti-oxidant power: daily peroxide index (Ip) of linoleic acid containing the suspended agent; settings: for INDICES DE PEROXYDES: agent at 1 % suspended in linoleic acid, stored at 60°C
Method: La mesure du pouvoir anti-oxydant est effectuée selon la méthode décrite par CARNAT et POURRAT (Ann. Pharm. Fr. 1979, 37, n° 3-4, p. 119-124) en remplaçant l'huile de lin par de l'acide linoléique.
L'oxydation de l'acide linoléique est suivie chaque jour par une mesure de l'indice de peroxydes Ip.
Dans un flacon contenant l'acide linoléique on ajoute 15 ml de CHC13, 20 ml d'acide acétique RP puis 1 ml de solution aqueuse saturée de KI. On agite 1 mn et on laisse reposer le flacon 5 mn à l'obscurité. Après avoir ajouté 100 ml d'eau on dose l'iode libéré par du thiosulfate de sodium 0,01 N. [formula] v = volume de Na2S2O3 versé dans le dosage v = volume de Na2S2O3 versé dans l'essai à blanc Ip est exprimé en mmoles d'oxygène/kg d'acide gras.
Remarque : v doit être voisin de O car un Ip élevé révèle une oxydation du KI par l'oxygène de l'air ou dissous dans les réactifs. Pour éviter cela, les réactifs et le solvant devront être débarrassés de l'oxygène dissous par barbotage de gaz inerte, ceci afin d'obtenir des résultats comparables.
Les différents agents anti-oxydants étudiés sont mis en suspension dans l'acide linoléique et les mélanges ainsi obtenus sont stockés à l'étuve (60°C).
Tous les jours un Ip est effectué sur les mélanges suivants : • 1 - acide thiosalicylique à 1 % • 2 - pyridine thione Zn à 1 % • 3 - thiosalicylate de Zn à 1 %.

[2] = Delay of auto-oxidation (Waginaire conditions): daily Ip in interesterified oil Labrafil M 1944 CS; settings: rank order by delay of the auto-oxidation maximum; dose 1/10 000 in Labrafil M 1944 CS, Ip daily for 90 days at 60°C
Description: (Bulletin technique SFPA n° 60) l'évolution des peroxydes se fait en trois phases : • 1) évolution lente de l'Ip (non observée avec l'acide linoléique) • 2) évolution rapide de l'Ip (deux premiers jours) • 3) stabilisation et décroissance de l'Ip.
Cette dernière période apparaît après plusieurs semaines. L'auteur attribue ce phénomène à la formation de groupements carbonyles (aldéhydes et cétones).
On obtient un profil de courbe Ip = f(t) comportant un maximum d'auto-oxydation net.
L'anti-oxydant est d'autant plus efficace que le maximum d'auto-oxydation est-retardé.

[3] = Partition coefficients at 20°C; format: physicochemical
Method: 2°) Détermination des coefficients de partage à 20°C

Zinc content = format: physicochemical
[4] = Maximum solubility in water at 20°C, by spectroscopy
[5] = water

Row | Compound | % Zinc (Zinc content) | Solubilité maximum dans l'eau [5] | INDICES DE PEROXYDES ([1]; 0 (start)) | INDICES DE PEROXYDES ([1]; 1 jour) | INDICES DE PEROXYDES ([1]; 2 jours) | INDICES DE PEROXYDES ([1]; 3 jours) | INDICES DE PEROXYDES ([1]; 4 jours) | Pouvoir anti-oxydant [2] | Valeurs de P ([3]; CHCl3 - eau) | Valeurs de P ([3]; Octanol-eau) | Solubilité maximum dans l'eau [4] [mg % ml] | activité anti-oxydante ([1]; in words, compared with pyrithione zinc)
1 | O=C(O)c1ccccc1S [acide thiosalicylique] | – | – | 0,8 millimoles D2 pour 1000 g d'acide linoléique | 117,2 millimoles D2 pour 1000 g d'acide linoléique | 191,9 millimoles D2 pour 1000 g d'acide linoléique | 202,7 millimoles D2 pour 1000 g d'acide linoléique | 204,2 millimoles D2 pour 1000 g d'acide linoléique | thiosalicylate de Zinc > pyrithione zinc> acide thiosalicylique | – | – | – | –
2 | [O-][n+]1ccccc1[S-].[O-][n+]1ccccc1[S-].[Zn+2] [pyrithione zinc] | 20,5% | – | 0,7 millimoles D2 pour 1000 g d'acide linoléique | 98 millimoles D2 pour 1000 g d'acide linoléique | 174,1 millimoles D2 pour 1000 g d'acide linoléique | 177,6 millimoles D2 pour 1000 g d'acide linoléique | 183,7 millimoles D2 pour 1000 g d'acide linoléique | thiosalicylate de Zinc > pyrithione zinc> acide thiosalicylique | 0,30 | 0,64 | 2 | –
3 | ortho thiocrésotinate de zinc [Exemple 7] | 28,1% | – | – | – | – | – | – | – | – | – | – | –
4 | thiosalicylate de zinc [Exemple 1] | 30% | 1,80 mg % ml | 0,6 millimoles D2 pour 1000 g d'acide linoléique | 45,5 millimoles D2 pour 1000 g d'acide linoléique | 84,4 millimoles D2 pour 1000 g d'acide linoléique | 99,5 millimoles D2 pour 1000 g d'acide linoléique | 103,9 millimoles D2 pour 1000 g d'acide linoléique | thiosalicylate de Zinc > pyrithione zinc> acide thiosalicylique | 0,05 | 0,21 | – | excellente

Further lines, with some results ahead:

Row | % Zinc (Zinc content) | Solubilité maximum dans l'eau [5] | Compound | INDICES DE PEROXYDES ([1]; 0 (start)) | INDICES DE PEROXYDES ([1]; 1 jour) | INDICES DE PEROXYDES ([1]; 2 jours) | INDICES DE PEROXYDES ([1]; 3 jours) | INDICES DE PEROXYDES ([1]; 4 jours) | Pouvoir anti-oxydant [2] | Valeurs de P ([3]; CHCl3 - eau) | Valeurs de P ([3]; Octanol-eau) | Solubilité maximum dans l'eau [4] [mg % ml] | activité anti-oxydante ([1]; in words, compared with pyrithione zinc)
5 | 25,7% | – | chloro-5-thiosalicylate de zinc [Exemple 9] | – | – | – | – | – | – | – | – | – | –
6 | 26,3% | – | méthoxy-4-thiosalicylate de zinc [Exemple 8] | – | – | – | – | – | – | – | – | – | –
